Measurements taken from US20150307938A1, “METHOD TO IDENTIFY A NOVEL CLASS OF IMMUNOLOGIC ADJUVANTS” (Lancell, L.L.C., priority 2011, published 2015).

Test system: skin
Assay: Affymetrix microarray of skin, DBP-4 hr and analogs vs. untreated; gene selection by log-2 fold change, Wilcoxon, Kendall tau (Tables 8, 9)
Type: in vivo, mouse
Conditions: DBP-4 hr vs. untreated

How did the “NA (AFFX-BioC-3_at) Wilcoxon” value turn out when `CCCCOC(=O)c1ccccc1C(=O)OCCCC` [DBP, dibutylphthalate] was run?
Its value is “Yes”.

What about the “NA (AFFX-BioC-5_at) Wilcoxon” value of the same molecule?
The value was “Yes”.

What about the “NA (AFFX-BioDn-3_at) Wilcoxon” value of the same molecule?
The value was “Yes”.

And the “NA (AFFX-BioDn-5_at) Wilcoxon” value?
Its value is “Yes”.

What about the “NA (AFFX-ThrX-5_at) Wilcoxon” value of the same molecule?
The value was “Yes”.

What about the “Nfil3 (NM_017373_at) Wilcoxon” value of the same molecule?
The value was “Yes”.

And the “Nfkbia (NM_010907_at) Wilcoxon” value?
The value was “No”.

And the “Nfkbiz (NM_030612_at) Wilcoxon” value?
Its value is “Yes”.

What about the “Nr4a2 (NM_013613_at) Wilcoxon” value of the same molecule?
The value was “Yes”.

And the “Otud7a (NM_130880_at) Wilcoxon” value?
The value was “No”.

What about the “Pde4b (NM_019840_at) Wilcoxon” value of the same molecule?
The value was “Yes”.

What about the “Pdk4 (NM_013743_at) Wilcoxon” value of the same molecule?
The value was “Yes”.

And the “Plaur (NM_011113_at) Wilcoxon” value?
Its value is “No”.

And the “Plek (NM_019549_at) Wilcoxon” value?
Its value is “Yes”.

And the “Plscr1 (NM_011636_at) Wilcoxon” value?
Its value is “No”.

What about the “Pmaip1 (NM_021451_at) Wilcoxon” value of the same molecule?
Its value is “Yes”.

What about the “Prss22 (NM_133731_at) Wilcoxon” value of the same molecule?
The value was “Yes”.

What about the “Ptges (NM_022415_at) Wilcoxon” value of the same molecule?
Its value is “No”.

And the “Pyy (NM_145435_at) Wilcoxon” value?
Its value is “Yes”.

And the “Rab20 (NM_011227_at) Wilcoxon” value?
Its value is “Yes”.

And the “Ramp3 (NM_019511_at) Wilcoxon” value?
Its value is “No”.

What about the “Rgs1 (NM_015811_at) Wilcoxon” value of the same molecule?
The value was “Yes”.

What about the “Rnf19b (NM_029219_at) Wilcoxon” value of the same molecule?
The value was “No”.

What about the “Saa3 (NM_011315_at) Wilcoxon” value of the same molecule?
Its value is “Yes”.

What about the “Slc5a1 (NM_019810_at) Wilcoxon” value of the same molecule?
Its value is “Yes”.

And the “Slc7a5 (NM_011404_at) Wilcoxon” value?
The value was “Yes”.

What about the “Slc10a6 (NM_029415_at) Wilcoxon” value of the same molecule?
The value was “No”.

And the “Slc15a3 (NM_023044_at) Wilcoxon” value?
Its value is “No”.

What about the “Slc25a25 (NM_146118_at) Wilcoxon” value of the same molecule?
The value was “No”.

And the “Slc34a2 (NM_011402_at) Wilcoxon” value?
The value was “Yes”.

And the “Slc39a8 (NM_026228_at) Wilcoxon” value?
Its value is “Yes”.

And the “Slfn2 (NM_011408_at) Wilcoxon” value?
The value was “Yes”.

And the “Slfn4 (NM_011410_at) Wilcoxon” value?
The value was “Yes”.

And the “Slpi (NM_011414_at) Wilcoxon” value?
The value was “Yes”.

And the “Smox (NM_145533_at) Wilcoxon” value?
The value was “Yes”.

What about the “Stfa3 (NM_025288_at) Wilcoxon” value of the same molecule?
The value was “Yes”.

What about the “Timp1 (NM_011593_at) Wilcoxon” value of the same molecule?
Its value is “Yes”.

And the “Tlr2 (NM_011905_at) Wilcoxon” value?
The value was “Yes”.

And the “Tnf (NM_013693_at) Wilcoxon” value?
The value was “Yes”.

And the “Tnfrsf12a (NM_013749_at) Wilcoxon” value?
The value was “Yes”.

What about the “Tslp (NM_021367_at) Wilcoxon” value of the same molecule?
Its value is “Yes”.

And the “Tslp (NR_033206_at) Wilcoxon” value?
The value was “Yes”.

And the “Tubb6 (NM_026473_at) Wilcoxon” value?
The value was “Yes”.

What about the “Uap1 (NM_133806_at) Wilcoxon” value of the same molecule?
Its value is “No”.

And the “Zc3h12a (NM_153159_at) Wilcoxon” value?
The value was “Yes”.

And the “Zfp36 (NM_011756_at) Wilcoxon” value?
Its value is “Yes”.

And the “Zfp593 (NM_024215_at) Wilcoxon” value?
The value was “No”.

What about the “1110032A04Rik NM_133675_at Wilcoxon” value (rank-sum p-value) of the same molecule?
Its value is “Yes”.

And the “2510002D24Rik NM_001033164_at Wilcoxon” value (rank-sum p-value)?
The value was “No”.

What about the “2510009E07Rik NM_001001881_at Wilcoxon” value (rank-sum p-value) of the same molecule?
Its value is “No”.

What about the “2610528A11Rik XR_105647_at Wilcoxon” value (rank-sum p-value) of the same molecule?
The value was “Yes”.

And the “1500015010Rik NM_024283_at Wilcoxon” value (rank-sum p-value)?
Its value is “Yes”.

What about the “3110079015Rik NM_028473_at Wilcoxon” value (rank-sum p-value) of the same molecule?
Its value is “Yes”.

And the “A2m NM_175628_at Wilcoxon” value (rank-sum p-value)?
Its value is “Yes”.

What about the “AY026312 NM_133359_at Wilcoxon” value (rank-sum p-value) of the same molecule?
Its value is “Yes”.

What about the “Actn2 NM_033268_at Wilcoxon” value (rank-sum p-value) of the same molecule?
Its value is “Yes”.

What about the “Akr1c14 NM_134072_at Wilcoxon” value (rank-sum p-value) of the same molecule?
The value was “Yes”.

And the “Aldh7a1 NM_001127338_at Wilcoxon” value (rank-sum p-value)?
Its value is “No”.

What about the “Aox4 NM_023631_at Wilcoxon” value (rank-sum p-value) of the same molecule?
The value was “Yes”.

What about the “Asb5 NM_029569_at Wilcoxon” value (rank-sum p-value) of the same molecule?
Its value is “Yes”.

What about the “Atp2a2 NM_001110140_at Wilcoxon” value (rank-sum p-value) of the same molecule?
Its value is “No”.

What about the “Atp13a3 NM_001128094_at Wilcoxon” value (rank-sum p-value) of the same molecule?
Its value is “No”.

And the “Atp13a3 NM_001128096_at Wilcoxon” value (rank-sum p-value)?
Its value is “No”.

What about the “Bcr NM_001081412_at Wilcoxon” value (rank-sum p-value) of the same molecule?
The value was “No”.

And the “Camk2g NM_001039138_at Wilcoxon” value (rank-sum p-value)?
Its value is “No”.

What about the “Camk2g NM_001039139_at Wilcoxon” value (rank-sum p-value) of the same molecule?
Its value is “No”.

What about the “Ccl8 NM_021443_at Wilcoxon” value (rank-sum p-value) of the same molecule?
Its value is “Yes”.

What about the “Ccl24 NM_019577_at Wilcoxon” value (rank-sum p-value) of the same molecule?
The value was “Yes”.

And the “Cd209d NM_130904_at Wilcoxon” value (rank-sum p-value)?
Its value is “Yes”.

And the “Ckmt2 NM_198415_at Wilcoxon” value (rank-sum p-value)?
The value was “Yes”.

And the “Cldn8 NM_018778_at Wilcoxon” value (rank-sum p-value)?
The value was “Yes”.

What about the “Clec4n NM_020001_at Wilcoxon” value (rank-sum p-value) of the same molecule?
The value was “Yes”.

And the “Cmya5 NM_023821_at Wilcoxon” value (rank-sum p-value)?
Its value is “Yes”.

And the “Comp NM_016685_at Wilcoxon” value (rank-sum p-value)?
The value was “Yes”.

And the “Corin NM_016869_at Wilcoxon” value (rank-sum p-value)?
Its value is “Yes”.

What about the “Crispld1 NM_031402_at Wilcoxon” value (rank-sum p-value) of the same molecule?
The value was “Yes”.

And the “Cxcl10 NM_021274_at Wilcoxon” value (rank-sum p-value)?
Its value is “Yes”.

And the “Cxcr6 NM_030712_at Wilcoxon” value (rank-sum p-value)?
The value was “Yes”.

And the “Cyth1 NM_001112699_at Wilcoxon” value (rank-sum p-value)?
The value was “No”.

What about the “Cyth1 NM_001112700_at Wilcoxon” value (rank-sum p-value) of the same molecule?
The value was “No”.

What about the “Dbp NM_016974_at Wilcoxon” value (rank-sum p-value) of the same molecule?
Its value is “Yes”.

And the “Deptor NM_001037937_at Wilcoxon” value (rank-sum p-value)?
The value was “No”.

And the “Dlgap4 NM_001042487_at Wilcoxon” value (rank-sum p-value)?
Its value is “No”.

And the “Dlgap4 NM_001042488_at Wilcoxon” value (rank-sum p-value)?
The value was “No”.

And the “Ear5 NM_019398_at Wilcoxon” value (rank-sum p-value)?
Its value is “Yes”.

And the “Fam134b NM_001034851_at Wilcoxon” value (rank-sum p-value)?
The value was “No”.

What about the “Gcdh NM_001044744_at Wilcoxon” value (rank-sum p-value) of the same molecule?
The value was “No”.

What about the “Gm10228 XM_001474297_at Wilcoxon” value (rank-sum p-value) of the same molecule?
The value was “Yes”.

What about the “Gm10228 XM_003086004_at Wilcoxon” value (rank-sum p-value) of the same molecule?
The value was “Yes”.
